Our source for the IC50 values is patent publication EP2757103B1, “PYRROLIDINE-3-YLACETIC ACID DERIVATIVE” (Eisai R&D Management Co., Ltd., priority 2011, dated 2013).

The term IC50 denotes the point on the concentration scale where inhibition reaches its midpoint. The low end stands for inhibition by little substance, the high end for a need for much substance.

The target in the assay is T1, CX3CR1 (Homo sapiens, UniProt P49238).
T1 construct: expressed in transfected cells; host or cells: B300 cells
T1 sequence (P49238 1-355): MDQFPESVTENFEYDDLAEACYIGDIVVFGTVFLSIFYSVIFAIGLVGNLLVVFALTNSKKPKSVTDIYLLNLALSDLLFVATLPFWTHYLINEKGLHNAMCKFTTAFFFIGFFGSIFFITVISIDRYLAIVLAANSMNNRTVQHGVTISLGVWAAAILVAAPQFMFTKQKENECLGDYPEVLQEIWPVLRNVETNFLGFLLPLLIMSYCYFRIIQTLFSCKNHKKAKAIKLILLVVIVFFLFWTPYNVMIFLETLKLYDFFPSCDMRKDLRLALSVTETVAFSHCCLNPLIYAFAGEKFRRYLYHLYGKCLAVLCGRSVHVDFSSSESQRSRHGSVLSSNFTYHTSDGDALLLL
As to the kind of experiment: Inhibition of cell migration in fractalkine-induced chemotaxis assay. The assay is classed as cell-based. The conditions noted are these: fractalkine-induced (0.3 nM) migration of CX3CR1-expressing B300 cells; preincubated with test compound for 30 minutes; Transwell, 3.5 hours at 37°C. The method, then: The inhibitory effects of the example compounds on fractalkine-induced cell migration were examined using CX3CR1-transfected B300 cells
After equilibrating the Transwell plate (24-well clusters, pore size: 5 µm, manufactured by Corning Incorporated), a fractalkine solution (0.3 nM, manufactured by R&D Systems, Inc.) was added to the lower wells. CX3CR1-expressing B300 cells which were preincubated with the test compound (0.001, 0.003, 0.01 or 0.03 µM) for 30 minutes were placed in the upper layer wells, followed by incubation under the condition of 5% CO2 for 3.5 hours at 37°C. The number of cells migrated to the lower wells was evaluated using CellTiter (manufactured by Promega Corporation).
The inhibitory rate of the test compound on fractalkine-induced cell migration was calculated by the following formula, where [A] is the number of migrated cells in the presence of both fractalkine and the test compound, [B] is the number of migrated cells in the presence of fractalkine and in the absence of the test compound, and [C] is the number of migrated cells in the absence of both fractalkine and the test compound; the 50% inhibitory concentration (IC50) was calculated based on the inhibitory rate. Inhibitory rate (%) = [1-{(A-C)/(B-C)}] × 100
Regarding `CCCC(F)CN1CCC(NC(=O)[C@]2(CC(=O)O)CN(Cc3c(Cl)cccc3C(F)(F)F)C[C@@H]2C)CC1` (stereo partly drawn) [Example 1, 2-[(3S,4R)-1-{[2-chloro-6-(trifluoromethyl)phenyl]methyl}-3-{[1-(2-fluoropentyl)piperidin-4-yl]carbamoyl}-4-methylpyrrolidin-3-yl]acetic acid], the IC50 turned out to be 0.013 µM.
To `C[C@H]1CN(Cc2c(Cl)cccc2Cl)C[C@@]1(CC(=O)O)C(=O)NC1CCN(CC2CCC(F)(F)CC2)CC1` [Example 2, 2-[(3S,4R)-1-[(2,6-Dichlorophenyl)methyl]-3-({1-[(4,4-difluorocyclohexyl)methyl]piperidin-4-yl}carbamoyl)-4-methylpyrrolidin-3-yl]acetic acid] belongs 0.021 µM.
To `C[C@H]1CN(Cc2c(Cl)cccc2C(F)(F)F)C[C@@]1(CC(=O)O)C(=O)NC1CCN(CC2=CCCCC2)CC1` [Example 3, 2-[(3S,4R)-1-{[2-Chloro-6-(trifluoromethyl)phenyl]methyl}-3-{[1-(cyclohex-1-en-1-ylmethyl)piperidin-4-yl]carbamoyl}-4-methylpyrrolidin-3-yl]acetic acid] belongs 0.004 µM; to `Cc1cccc(Cl)c1CN1C[C@H](C)[C@](CC(=O)O)(C(=O)NC2CCN(CC3=CCCCC3)CC2)C1` [Example 6, 2-[(3S,4R)-1-[(2-Chloro-6-methylphenyl)methyl]-3-{[1-(cyclohex-1-en-1-ylmethyl)piperidin-4-yl]carbamoyl}-4-methylpyrrolidin-3-yl]acetic acid], 0.011 µM; to `C[C@H]1CN(Cc2c(Cl)cccc2C(F)(F)F)C[C@@]1(CC(=O)O)C(=O)NC1CCN(CC2=CCCC2)CC1` [Example 7, 2-[(3S,4R)-1-{[2-Chloro-6-(trifluoromethyl)phenyl]methyl}-3-{[1-(cyclopent-1-en-1-ylmethyl)piperidin-4-yl]carbamoyl}-4-methylpyrrolidin-3-yl]acetic acid], 0.005 µM.
As to `C[C@H]1CN(Cc2c(Cl)cccc2Cl)C[C@@]1(CC(=O)O)C(=O)N[C@H]1CCN(CC2=CCCCC2)C1` [Example 9, 2-[(3S,4R)-3-{[(3S)-1-(Cyclohex-1-en-1-ylmethyl)pyrrolidin-3-yl]carbamoyl}-1-[(2,6-dichlorophenyl)methyl]-4-methylpyrrolidin-3-yl]acetic acid], the IC50 was 0.016 µM.
The value for `CCCCCCN1CCC(NC(=O)[C@]2(CC(=O)O)CN(Cc3c(Cl)cccc3C(F)F)C[C@@H]2C)CC1` [Example 10, 2-[(3S,4R)-1-{[2-Chloro-6-(difluoromethyl)phenyl]methyl}-3-[(1-hexylpiperidin-4-yl)carbamoyl]-4-methylpyrrolidin-3-yl]acetic acid] was 0.014 µM; that for `C[C@H]1CN(Cc2c(Cl)cccc2C(F)F)C[C@@]1(CC(=O)O)C(=O)NC1CCN(CC2=CCCCC2)CC1` [Example 12, 2-[(3S,4R)-1-{[2-Chloro-6-(difluoromethyl)phenyl]methyl}-3-{[1-(cyclohex-1-en-1-ylmethyl)piperidin-4-yl]carbamoyl}-4-methylpyrrolidin-3-yl]acetic acid] was 0.006 µM; that for `C[C@H]1CN(Cc2c(Cl)cccc2C(F)F)C[C@@]1(CC(=O)O)C(=O)NC1CCN(CC2=CCCC2)CC1` [Example 13, 2-[(3S,4R)-1-{[2-Chloro-6-(difluoromethyl)phenyl]methyl}-3-{[1-(cyclopent-1-en-1-ylmethyl)piperidin-4-yl]carbamoyl}-4-methylpyrrolidin-3-yl]acetic acid] was 0.016 µM.
The value for `C[C@H]1CN(Cc2c(Cl)cccc2C(F)F)C[C@@]1(CC(=O)O)C(=O)NC1CCN(CC2CCCCC2)CC1` [Example 14, 2-[(3S,4R)-1-{[2-Chloro-6-(difluoromethyl)phenyl]methyl}-3-{[1-(cyclohexylmethyl)piperidin-4-yl]carbamoyl}-4-methylpyrrolidin-3-yl]acetic acid] was 0.012 µM.
